Patent US9085576B2 (AMGEN INC., priority 2013, dated 2015)

Tests used:
[1] = biological target: Cathepsin D (Cat D) (Homo sapiens (Human), UniProt P07339); test: In vitro enzymatic Cathepsin D (Cat D) FRET assay; assay type: biochemical; conditions: read-out: CatD IC50
[2] = biological target: BACE (Homo sapiens (Human), UniProt P56817); test: In vitro BACE cell-based assay (Aβ40 in conditioned medium, sandwich ELISA)
[3] = biological target: Beta Secretase enzyme (BACE) (Homo sapiens (Human), UniProt P56817); test: In vitro enzymatic BACE FRET assay; assay type: biochemical; conditions: read-out: BACE1 Enzyme assay IC50
Chain of Beta Secretase enzyme (BACE) (P56817 46-501): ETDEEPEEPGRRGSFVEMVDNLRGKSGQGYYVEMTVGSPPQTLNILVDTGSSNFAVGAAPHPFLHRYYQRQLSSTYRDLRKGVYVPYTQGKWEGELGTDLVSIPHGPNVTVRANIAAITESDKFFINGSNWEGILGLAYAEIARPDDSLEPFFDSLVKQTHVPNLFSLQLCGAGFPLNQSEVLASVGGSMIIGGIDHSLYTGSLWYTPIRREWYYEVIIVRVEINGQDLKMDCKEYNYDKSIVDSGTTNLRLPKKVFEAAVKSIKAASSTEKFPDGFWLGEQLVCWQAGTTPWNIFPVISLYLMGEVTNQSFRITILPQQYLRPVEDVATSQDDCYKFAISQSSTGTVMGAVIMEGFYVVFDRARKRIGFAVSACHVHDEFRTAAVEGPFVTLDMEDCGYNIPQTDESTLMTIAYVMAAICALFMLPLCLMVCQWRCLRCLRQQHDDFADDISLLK

Chain of Cathepsin D (Cat D) (P07339 65-412, species assumed): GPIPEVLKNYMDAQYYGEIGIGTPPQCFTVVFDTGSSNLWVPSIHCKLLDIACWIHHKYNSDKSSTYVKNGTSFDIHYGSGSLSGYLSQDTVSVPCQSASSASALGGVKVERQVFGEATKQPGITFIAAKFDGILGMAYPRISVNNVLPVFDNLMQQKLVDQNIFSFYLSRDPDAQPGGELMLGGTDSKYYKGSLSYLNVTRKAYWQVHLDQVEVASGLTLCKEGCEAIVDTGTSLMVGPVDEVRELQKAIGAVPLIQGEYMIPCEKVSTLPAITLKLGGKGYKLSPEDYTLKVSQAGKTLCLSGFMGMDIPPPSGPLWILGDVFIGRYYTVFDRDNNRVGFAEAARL
Chain of BACE (P56817 46-501, species assumed): as the sequence (P56817 46-501) above

Row | SMILES | IC50 [1] | IC50 [2] | IC50 [3]
1 | Cc1cc(C(F)(F)F)cnc1C(=O)Nc1ccc(Cl)c([C@@]2(C(F)F)N=C(N)O[C@@H]3C[C@@H]32)c1 [Example 217, N-(3-((1R,5S,6R)-3-amino-5-(difluoromethyl)-2-oxa-4-azabicyclo[4.1.0]hept-3-en-5-yl)-4-chlorophenyl)-3-methyl-5-(trifluoromethyl) picolinamide] | 206 µM | 0.0116 µM | 15.1 nM
2 | C#CCOc1cnc(C(=O)Nc2ccc(Cl)c([C@@]3(C(F)F)N=C(N)O[C@@H]4C[C@@H]43)c2)cn1 [Example 221, N-(3-((1R,5S,6R)-3-amino-5-(difluoromethyl)-2-oxa-4-azabicyclo[4.1.0]hept-3-en-5-yl)-4-chlorophenyl)-5-(prop-2-yn-1-yloxy)pyrazine-2-carboxamide] | 51.1 µM | 0.0033 µM | 2.7 nM
3 | Cc1cc(C#N)cnc1C(=O)Nc1ccc(Cl)c([C@@]2(C(F)F)N=C(N)O[C@@H]3C[C@@H]32)c1 [Example 223, N-(3-((1R,5S,6R)-3-amino-5-(difluoromethyl)-2-oxa-4-azabicyclo[4.1.0]hept-3-en-5-yl)-4-chlorophenyl)-5-cyano-3-methylpicolinamide] | 541 µM | 0.0314 µM | 18.4 nM
4 | NC1=N[C@@](c2cc(NC(=O)c3nn(C(F)F)cc3Cl)ccc2Cl)(C(F)F)[C@H]2C[C@H]2O1 [Example 224, N-(3-((1R,5S,6R)-3-amino-5-(difluoromethyl)-2-oxa-4-azabicyclo[4.1.0]hept-3-en-5-yl)-4-chlorophenyl)-4-chloro-1-(difluoromethyl)-1H-pyrazole-3-carboxamide] | 510 µM | 0.0252 µM | 10.5 nM
5 | COc1cnc(C(=O)Nc2ccc(Cl)c([C@@]3(C(F)F)N=C(N)O[C@@H]4C[C@@H]43)c2)cn1 [Example 226, N-(3-((1R,5S,6R)-3-amino-5-(difluoromethyl)-2-oxa-4-azabicyclo[4.1.0]hept-3-en-5-yl)-4-chlorophenyl)-5-methoxypyrazine-2-carboxamide] | 363 µM | 0.0394 µM | 89.5 nM
6 | NC1=N[C@@](CF)(c2cc(NC(=O)c3ccc(Cl)cn3)cnc2F)[C@@H]2C[C@@H]2O1 [Example 230, N-(5-((1S,5R,6S)-3-amino-5-(fluoromethyl)-2-oxa-4-azabicyclo[4.1.0]hept-3-en-5-yl)-6-fluoropyridin-3-yl)-5-chloropicolinamide] | > 400 µM | 2.23 µM | 12000 nM
7 | NC1=N[C@](CF)(c2cc(NC(=O)c3ccc(Cl)cn3)cnc2F)[C@H]2C[C@H]2O1 [Example 231, N-(5-((1R,5S,6R)-3-amino-5-(fluoromethyl)-2-oxa-4-azabicyclo[4.1.0]hept-3-en-5-yl)-6-fluoropyridin-3-yl)-5-chloropicolinamide] | 390 µM | 0.0277 µM | 165 nM
8 | C#CCOc1ccc(C(=O)Nc2ccc(F)c([C@@]3(C(F)F)N=C(N)O[C@@H]4C[C@@H]43)c2)nc1 [Example 232, N-(3-((1R,5S,6R)-3-amino-5-(difluoromethyl)-2-oxa-4-azabicyclo[4.1.0]hept-3-en-5-yl)-4-fluorophenyl)-5-(prop-2-yn-1-yloxy)picolinamide] | 588 µM | 0.0418 µM | 16.4 nM
9 | CC#CCOc1ccc(C(=O)Nc2ccc(F)c([C@@]3(C(F)F)N=C(N)O[C@@H]4C[C@@H]43)c2)nc1 [Example 233, N-(3-((1R,5S,6R)-3-amino-5-(difluoromethyl)-2-oxa-4-azabicyclo[4.1.0]hept-3-en-5-yl)-4-fluorophenyl)-5-(but-2-yn-1-yloxy)picolinamide] | 244 µM | 0.024 µM | 5.7 nM
10 | Cc1cc(C(F)F)cnc1C(=O)Nc1cnc(F)c([C@@]2(CF)N=C(N)O[C@@H]3C[C@@H]32)c1 [Example 234, N-(5-((1R,5S,6R)-3-amino-5-(fluoromethyl)-2-oxa-4-azabicyclo[4.1.0]hept-3-en-5-yl)-6-fluoropyridin-3-yl)-5-(difluoromethyl)-3-methylpicolinamide] | > 14.8 µM | 0.0596 µM | 283 nM
11 | NC1=N[C@](CF)(c2cc(NC(=O)c3ccc(Br)cn3)cnc2F)[C@H]2C[C@H]2O1 [Example 235, N-(5-((1R,5S,6R)-3-amino-5-(fluoromethyl)-2-oxa-4-azabicyclo[4.1.0]hept-3-en-5-yl)-6-fluoropyridin-3-yl)-5-bromopicolinamide] | 1810 µM | 0.0188 µM | 126 nM
12 | NC1=N[C@@](c2cc(NC(=O)c3ccc(OCC(F)(F)F)cn3)ccc2F)(C(F)F)[C@H]2C[C@H]2O1 [Example 236, N-(3-((1R,5S,6R)-3-amino-5-(difluoromethyl)-2-oxa-4-azabicyclo[4.1.0]hept-3-en-5-yl)-4-fluorophenyl)-5-(2,2,2-trifluoroethoxy) picolinamide] | 4250 µM | 0.296 µM | 104 nM
13 | NC1=N[C@@](c2cc(NC(=O)C3CCCCC3)ccc2F)(C(F)F)[C@H]2C[C@H]2O1 [Example 239, N-(3-((1R,5S,6R)-3-amino-5-(difluoromethyl)-2-oxa-4-azabicyclo[4.1.0]hept-3-en-5-yl)-4-fluorophenyl) cyclohexanecarboxamide] | > 400 µM | > 15.6 µM | > 40000 nM
14 | COCC(=O)Nc1ccc(F)c([C@@]2(C(F)F)N=C(N)O[C@@H]3C[C@@H]32)c1 [Example 240, N-(3-((1R,5S,6R)-3-amino-5-(difluoromethyl)-2-oxa-4-azabicyclo[4.1.0]hept-3-en-5-yl)-4-fluorophenyl)-2-methoxyacetamide] | 48.1 µM | 0.712 µM | 821 nM
15 | NC1=N[C@@](c2cc(NC(=O)CC3CCCCC3)ccc2F)(C(F)F)[C@H]2C[C@H]2O1 [Example 241, N-(3-((1R,5S,6R)-3-amino-5-(difluoromethyl)-2-oxa-4-azabicyclo[4.1.0]hept-3-en-5-yl)-4-fluorophenyl)-2-cyclohexylacetamide] | > 400 µM | > 15.6 µM | > 40000 nM
16 | NC1=N[C@@](c2cc(NC(=O)C3CCOCC3)ccc2F)(C(F)F)[C@H]2C[C@H]2O1 [Example 242] | 1910 µM | > 15.6 µM | > 40000 nM
17 | NC1=N[C@@](c2cc(NC(=O)C3=CCCCC3)ccc2F)(C(F)F)[C@H]2C[C@H]2O1 [Example 243, N-(3-((1R,5S,6R)-3-amino-5-(difluoromethyl)-2-oxa-4-azabicyclo[4.1.0]hept-3-en-5-yl)-4-fluorophenyl)cyclohex-1-enecarboxamide] | 1030 µM | 4.07 µM | 24400 nM
18 | NC1=N[C@@](c2cc(NC(=O)C3(c4ccc(Cl)cc4)CC3)ccc2F)(C(F)F)[C@H]2C[C@H]2O1 [Example 245, N-(3-((1R,5S,6R)-3-amino-5-(difluoromethyl)-2-oxa-4-azabicyclo[4.1.0]hept-3-en-5-yl)-4-fluorophenyl)-1-(4-chlorophenyl) cyclopropanecarboxamide] | 447 µM | > 15.6 µM | > 40000 nM
19 | NC1=N[C@@](c2cc(NC(=O)C3(c4ccc(Cl)cc4)CCC3)ccc2F)(C(F)F)[C@H]2C[C@H]2O1 [Example 246, N-(3-((1R,5S,6R)-3-amino-5-(difluoromethyl)-2-oxa-4-azabicyclo[4.1.0]hept-3-en-5-yl)-4-fluorophenyl)-1-(4-chlorophenyl) cyclobutanecarboxamide] | 324 µM | > 15.6 µM | > 40000 nM
20 | COCCC(=O)Nc1ccc(F)c([C@@]2(C(F)F)N=C(N)O[C@@H]3C[C@@H]32)c1 [Example 247, N-(3-((1R,5S,6R)-3-amino-5-(difluoromethyl)-2-oxa-4-azabicyclo[4.1.0]hept-3-en-5-yl)-4-fluorophenyl)-3-methoxypropanamide] | 486 µM | 4.34 µM | 25500 nM
21 | Cn1cc(C(=O)Nc2ccc(F)c([C@@]3(C(F)F)N=C(N)O[C@@H]4C[C@@H]43)c2)ccc1=O [Example 248, N-(3-((1R,5S,6R)-3-amino-5-(difluoromethyl)-2-oxa-4-azabicyclo[4.1.0]hept-3-en-5-yl)-4-fluorophenyl)-1-methyl-6-oxo-1,6-dihydropyridine-3-carboxamide] | 1230 µM | > 15.6 µM | 40500 nM
22 | Cn1ccc(C(=O)Nc2ccc(F)c([C@@]3(C(F)F)N=C(N)O[C@@H]4C[C@@H]43)c2)cc1=O [Example 249, N-(3-((1R,5S,6R)-3-amino-5-(difluoromethyl)-2-oxa-4-azabicyclo[4.1.0]hept-3-en-5-yl)-4-fluorophenyl)-1-methyl-2-oxo-1,2-dihydropyridine-4-carboxamide] | 1590 µM | > 15.6 µM | > 40000 nM
23 | NC1=N[C@@](c2cc(NC(=O)c3ccc(OCC#CC4CC4)cn3)ccc2F)(C(F)F)[C@H]2C[C@H]2O1 [Example 250, N-(3-((1R,5S,6R)-3-amino-5-(difluoromethyl)-2-oxa-4-azabicyclo[4.1.0]hept-3-en-5-yl)-4-fluorophenyl)-5-((3-cyclopropylprop-2-yn-1-yl)oxy)picolinamide] | 77.5 µM | 0.603 µM | 21.8 nM
24 | NC1=N[C@@](c2cc(NC(=O)CC(F)(F)F)ccc2F)(C(F)F)[C@H]2C[C@H]2O1 [Example 251, N-(3-((1R,5S,6R)-3-amino-5-(difluoromethyl)-2-oxa-4-azabicyclo[4.1.0]hept-3-en-5-yl)-4-fluorophenyl)-3,3,3-trifluoropropanamide] | 190 µM | 2 µM | 4700 nM
25 | CC(C)(C)OCC(=O)Nc1ccc(F)c([C@@]2(C(F)F)N=C(N)O[C@@H]3C[C@@H]32)c1 [Example 254, N-(3-((1R,5S,6R)-3-amino-5-(difluoromethyl)-2-oxa-4-azabicyclo[4.1.0]hept-3-en-5-yl)-4-fluorophenyl)-2-(tert-butoxy)acetamide] | 2560 µM | > 15.6 µM | > 40000 nM
